Results as given in patent US20210238225A1, “PEPTIDOMIMETIC INHIBITORS OF THE PEPTIDYL-PROLYL CIS/TRANS ISOMERASE (PIN1)” (DANA-FARBER CANCER INSTITUTE, INC., priority 2018, published 2021).
Where two headings read alike, the source gives them in different places. Non-standard residues stand in square brackets, D forms with d. Residues, ends and D or L forms follow the SMILES beside them. *: point of attachment. Phe(4-F) = N[C@@H](Cc1ccc(F)cc1)C(=O)O; 2Nal = N[C@@H](Cc1ccc2ccccc2c1)C(=O)O; Met(O2) = CS(=O)(=O)CC[C@H](N)C(=O)O; Bta = N[C@@H](Cc1csc2ccccc12)C(=O)O; NH(4-Me-benzyl) = Cc1ccc(CN*)cc1; Cit = NC(=O)NCCC[C@H](N)C(=O)O; X7 = c1ccc(-c2ccc(N*)cc2)cc1; Pip = O=C(O)[C@@H]1CCCCN1; βNA = c1ccc2cc(N*)ccc2c1; Fluoroacetyl = O=C(CF)*; X5 = Cc1ccc(CN(C)*)cc1; X4 = CN(c1ccccc1)*; ClAc = O=C(CCl)*; X1 = O=C(C1CO1)*

Target: Pin1 (GST-Pin1) (Homo sapiens, UniProt Q13526)
Test: Fluorescence polarization (FP) assay, binding to Pin1
Settings: competition with fluorescein-labeled peptide probe, 12 hours pre-incubation at 4° C., Kenakin Ki equation

Pin1 (GST-Pin1), sequence (Q13526 whole entry): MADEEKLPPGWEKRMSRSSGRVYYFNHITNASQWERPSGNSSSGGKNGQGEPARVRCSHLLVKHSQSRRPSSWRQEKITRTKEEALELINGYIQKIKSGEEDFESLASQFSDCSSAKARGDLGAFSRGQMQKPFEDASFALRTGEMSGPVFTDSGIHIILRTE

Row | Ki (read-out: Ki, μM (FP Assay)) [µM] | SMILES | Ki (Ki, μM (FP Assay)) [µM]
1 | 0.61 | NC(=O)NCCC[C@H](NC(=O)[C@H](Cc1ccc2ccccc2c1)NC(=O)[C@@H]1CCCCN1C(=O)C[C@H](CCC(=O)O)N1C(=O)C=CC1=O)C(N)=O [Compound 5-1, (S)-6-((S)-2-(((S)-1-(((S)-1-Amino-1-oxo-5-ureidopentan-2-yl)amino)-3-(naphthalen-2-yl)-1-oxopropan-2-yl)carbamoyl)piperidin-1-yl)-4-(2,5-dioxo-2,5-dihydro-1H-pyrrol-1-yl)-6-oxohexanoic acid] | 
2 |  | NC(=O)NCCC[C@H](NC(=O)[C@H](Cc1c[nH]c2ccccc12)NC(=O)[C@@H]1CCCCN1C(=O)[C@H](CCC(=O)O)NC(=O)CF)C(N)=O [Compound 6b, (S)-5-((S)-2-(((S)-1-(((S)-1-Amino-1-oxo-5-ureidopentan-2-yl)amino)-3-(1H-indol-3-yl)-1-oxopropan-2-yl)carbamoyl)piperidin-1-yl)-4-(2-fluoroacetamido)-5-oxopentanoic acid] (Fluoroacetyl-E[Pip]W[Cit]-NH2) | > 10
3 |  | N=C(N)NCCC[C@H](NC(=O)[C@H](Cc1ccc2ccccc2c1)NC(=O)[C@@H]1CCCCN1C(=O)[C@H](CCC(=O)O)NC(=O)CF)C(N)=O [Compound 6b-1, (S)-5-((S)-2-(((S)-1-(((S)-1-Amino-5-guanidino-1-oxopentan-2-yl)amino)-3-(naphthalen-2-yl)-1-oxopropan-2-yl)carbamoyl)piperidin-1-yl)-4-(2-fluoroacetamido)-5-oxopentanoic acid] (Fluoroacetyl-E[Pip][2Nal]R-NH2) | > 10
4 |  | COC(=O)CC[C@H](NC(=O)CCl)C(=O)N1CCCC[C@H]1C(=O)N[C@@H](Cc1c[nH]c2ccccc12)C(=O)N[C@@H](CCCNC(N)=O)C(=O)Nc1ccc2ccccc2c1 [Compound 11-8, Methyl (S)-5-((S)-2-(((S)-3-(1H-indol-3-yl)-1-(((S)-1-(naphthalen-2-ylamino)-1-oxo-5-ureidopentan-2-yl)amino)-1-oxopropan-2-yl)carbamoyl)piperidin-1-yl)-4-(2-chloroacetamido)-5-oxopentanoate] (ClAc-E(OMe)[Pip]W[Cit]-βNA) | 0.15
5 | 0.11 | NC(=O)NCCC[C@H](NC(=O)[C@H](Cc1c[nH]c2ccccc12)NC(=O)[C@@H]1CCCCN1C(=O)[C@H](CCC(=O)O)NC(=O)CCl)C(=O)Nc1ccc2ccccc2c1 [Compound 11-10, (S)-5-((S)-2-(((S)-3-(1H-Indol-3-yl)-1-(((S)-1-(naphthalen-2-ylamino)-1-oxo-5-ureidopentan-2-yl)amino)-1-oxopropan-2-yl)carbamoyl)piperidin-1-yl)-4-(2-chloroacetamido)-5-oxopentanoic acid] (ClAc-E[Pip]W[Cit]-βNA) | 
6 | > 10 | COC(=O)CC[C@H](NC(=O)C1CO1)C(=O)N1CCCC[C@H]1C(=O)N[C@@H](Cc1c[nH]c2ccccc12)C(=O)N[C@@H](CCCNC(N)=O)C(=O)NCc1ccc(C)cc1 (stereo partly drawn) [Compound 11-12, Methyl (4S)-5-((S)-2-(((S)-3-(1H-indol-3-yl)-1-(((S)-1-((4-methylbenzyl)amino)-1-oxo-5-ureido-pentan-2-yl)amino)-1-oxopropan-2-yl)carbamoyl)piperidin-1-yl)-4-(oxirane-2-carboxamido)-5-oxopentanoate] (X1-E(OMe)[Pip]W[Cit]-{NH(4-Me-benzyl)}) | 
7 |  | COC(=O)CC[C@H](NC(=O)CCl)C(=O)N1CCCC[C@H]1C(=O)N[C@@H](Cc1c[nH]c2ccccc12)C(=O)N[C@@H](CCCNC(N)=O)C(=O)N(C)c1ccccc1 [Compound 11-15, Methyl (S)-5-((S)-2-(((S)-3-(1H-indol-3-yl)-1-(((S)-1-(methyl(phenyl)amino)-1-oxo-5-ureidopentan-2-yl)amino)-1-oxopropan-2-yl)carbamoyl)piperidin-1-yl)-4-(2-chloroacetamido)-5-oxopentanoate] (ClAc-E(OMe)[Pip]W[Cit]-X4) | 0.15
8 |  | COC(=O)CC[C@@H](NC(=O)CCl)C(=O)N1CCCC[C@H]1C(=O)N[C@@H](Cc1c[nH]c2ccccc12)C(=O)N[C@@H](Cc1ccc(F)cc1)C(=O)NCc1ccc(C)cc1 [Compound 11-16, Methyl (R)-4-(2-chloroacetamido)-5-((S)-2-(((S)-1-(((S)-3-(4-fluorophenyl)-1-((4-methyl-benzyl)amino)-1-oxopropan-2-yl)amino)-3-(1H-indol-3-yl)-1-oxopropan-2-yl)carbamoyl)-piperidin-1-yl)-5-oxopentanoate] (ClAc-[dE](OMe)[Pip]W[Phe(4-F)]-{NH(4-Me-benzyl)}) | > 10
9 |  | COC(=O)CC[C@H](NC(=O)CCl)C(=O)N1CCCC[C@H]1C(=O)N[C@@H](Cc1c[nH]c2ccccc12)C(=O)N[C@@H](CCCNC(N)=O)C(=O)Nc1ccc(-c2ccccc2)cc1 [Compound 11-17, Methyl (S)-5-((S)-2-(((S)-1-(((S)-1-([1,1′-biphenyl]-4-ylamino)-1-oxo-5-ureidopentan-2-yl)amino)-3-(1H-indol-3-yl)-1-oxopropan-2-yl)carbamoyl)piperidin-1-yl)-4-(2-chloroacetamido)-5-oxopentanoate] (ClAc-E(OMe)[Pip]W[Cit]-X7) | > 10
10 |  | COC(=O)CC[C@H](NC(=O)CCl)C(=O)N1CCCC[C@H]1C(=O)N[C@@H](Cc1c[nH]c2ccccc12)C(=O)N[C@@H](Cc1ccc(F)cc1)C(=O)N(C)c1ccccc1 [Compound 11-20, Methyl (S)-4-(2-chloroacetamido)-5-((S)-2-(((S)-1-(((S)-3-(4-fluorophenyl)-1-(methyl-(phenyl)amino)-1-oxopropan-2-yl)amino)-3-(1H-indol-3-yl)-1-oxopropan-2-yl)carbamoyl)-piperidin-1-yl)-5-oxopentanoate] (ClAc-E(OMe)[Pip]W[Phe(4-F)]-X4) | 0.223
11 |  | COC(=O)CC[C@H](NC(=O)CCl)C(=O)N1CCCC[C@H]1C(=O)N[C@@H](Cc1csc2ccccc12)C(=O)N[C@@H](CCCNC(N)=O)C(=O)NCc1ccc(C)cc1 [Compound 11-21, Methyl (S)-5-((S)-2-(((S)-3-(benzo[&]thiophen-3-yl)-1-(((S)-1-((4-methylbenzyl)amino)-1-oxo-5-ureidopentan-2-yl)amino)-1-oxopropan-2-yl)carbamoyl)piperidin-1-yl)-4-(2-chloroacetamido)-5-oxopentanoate] (ClAc-E(OMe)[Pip][Bta][Cit]-{NH(4-Me-benzyl)}) | 0.015

Row | SMILES | Ki (read-out: Ki, μM (FP Assay)) [µM] | Ki (Ki, μM (FP Assay)) [µM]
12 | Cc1ccc(CN(C)C(=O)[C@H](CCCNC(N)=O)NC(=O)[C@H](Cc2c[nH]c3ccccc23)NC(=O)[C@@H]2CCCCN2C(=O)[C@H](CCC(=O)O)NC(=O)CCl)cc1 [Compound 11-9, (S)-5-((S)-2-(((S)-3-(1H-Indol-3-yl)-1-(((S)-1-(methyl(4-methylbenzyl)amino)-1-oxo-5-ureidopentan-2-yl)amino)-1-oxopropan-2-yl)carbamoyl)piperidin-1-yl)-4-(2-chloroacetamido)-5-oxopentanoic acid] (ClAc-E[Pip]W[Cit]-X5) | 0.31 | 
13 | Cc1ccc(CNC(=O)[C@H](CCCNC(N)=O)NC(=O)[C@H](Cc2c[nH]c3ccccc23)NC(=O)[C@@H]2CCCCN2C(=O)[C@H](CCS(C)(=O)=O)NC(=O)CCl)cc1 [Compound 11-11, (S)—N—((S)-3-(1H-Indol-3-yl)-1-(((S)-1-((4-methylbenzyl)amino)-1-oxo-5-ureidopentan-2-yl)amino)-1-oxopropan-2-yl)-1-((S)-2-(2-chloroacetamido)-4-(methylsulfonyl)butanoyl)piperidine-2-carboxamide] (ClAc-[Met(O2)][Pip]W[Cit]-{NH(4-Me-benzyl)}) | 0.17 | 
